Laboratory results taken from patent publication US20230279025A1, “KRAS G12D INHIBITORS” (Mirati Therapeutics, Inc., priority 2020, published 2023).
Counter-ions that a name gives are not always drawn.

Molecular target: KRas G12D (Homo sapiens (Human), UniProt P01116, G12D)
Assay: KRas G12D Binding Assay (TR-FRET displacement of Cy5 labelled tracer)
Conditions: GDP-loaded KRAS G12D (amino acids 1:169), 60 minute incubation at 22° C.
Experimental: After a 60 minute incubation at 22° C., the reaction was measured using a PerkinElmer EnVision multimode plate reader via TR-FRET dual wavelength detection, and the percent of control (POC) calculated using a ratiometric emission factor. […] The POC values were fit to a 4-parameter logistic curve and the IC50 value was determined as the concentration where the curve crosses 50 POC.
ND stands for “not determined.”

Sequence of KRas G12D (P01116 other isoform, or with tags, fused parts or gaps G12D): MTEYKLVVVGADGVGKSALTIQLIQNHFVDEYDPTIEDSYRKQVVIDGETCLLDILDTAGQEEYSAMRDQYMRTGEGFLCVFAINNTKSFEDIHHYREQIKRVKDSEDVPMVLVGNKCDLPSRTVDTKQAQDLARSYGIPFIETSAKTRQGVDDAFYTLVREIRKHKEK

| SMILES | IC50 |
| --- | --- |
| CN(C)Cc1ccc(COCCNC(=O)O[C@@H]2C[C@@H](COc3nc(N4C[C@H]5CC[C@@H](C4)N5)c4cnc(-c5cccc6cccc(Cl)c56)c(F)c4n3)N(C)C2)cc1 [Example 308, (3R,5S)-5-(((4-((1R,5S)-3,8-diazabicyclo[3.2.1]octan-3-yl)-7-(8-chloronaphthalen-1-yl)-8-fluoropyrido[4,3-d]pyrimidin-2-yl)oxy)methyl)-1-methylpyrrolidin-3-yl (2-((4-((dimethylamino)methyl)benzyl)oxy)ethyl)carbamate] | 117 nM |
| Cc1cc(-c2ncc3c(N4CC5CCC(C4)N5)nc(OC[C@@]45CCCN4C[C@H](F)C5)nc3c2F)c2cn[nH]c2c1 (stereo in doubt) [Example 391, 4-((1R,5S)-3,8-diazabicyclo[3.2.1]octan-3-yl)-8-fluoro-2-((2-fluorotetrahydro-1H-pyrrolizin-7a(5H)-yl)methoxy)-7-(6-methyl-1H-indazol-4-yl)pyrido[4,3-d]pyrimidine] | 662 nM |
| CNc1nc(N2CC3CCC(C2)N3)c2cnc(-c3cc(O)cc4ccccc34)c(F)c2n1 [Example 183, 4-[4-(3,8-diazabicyclo[3.2.1]octan-3-yl)-8-fluoro-2-(methylamino)pyrido[4,3-d]pyrimidin-7-yl]naphthalen-2-ol] | 393 nM |
| Oc1cc(-c2ncc3c(N4C[C@H]5CC[C@@H](C4)N5)nc(OCC45CCCN4CCC5)nc3c2F)c2c(F)cccc2c1 [Example 367, 4-(4-((1R,5S)-3,8-diazabicyclo[3.2.1]octan-3-yl)-8-fluoro-2-((tetrahydro-1H-pyrrolizin-7a(5H)-yl)methoxy)pyrido[4,3-d]pyrimidin-7-yl)-5-fluoronaphthalen-2-ol tris(2,2,2-trifluoroacetate)] | 0.7 nM |
| Fc1c(-c2ccccc2C(F)(F)F)ncc2c(N3C[C@H]4CC[C@@H](C3)N4)nc(OCC34CCCN3CCC4)nc12 [Example 370, 4-((1R,5S)-3,8-diazabicyclo[3.2.1]octan-3-yl)-8-fluoro-2-((tetrahydro-1H-pyrrolizin-7a(5H)-yl)methoxy)-7-(2-(trifluoromethyl)phenyl)pyrido[4,3-d]pyrimidine] | 86.1 nM |
| CN1C[C@H](NC(=O)c2ccccc2C=O)C[C@H]1COc1nc(N2C[C@H]3CC[C@@H](C2)N3)c2cnc(-c3cccc4cccc(Cl)c34)c(F)c2n1 [Example 355, N-((3R,5S)-5-(((4-((1R,5S)-3,8-diazabicyclo[3.2.1]octan-3-yl)-7-(8-chloronaphthalen-1-yl)-8-fluoropyrido[4,3-d]pyrimidin-2-yl)oxy)methyl)-1-methylpyrrolidin-3-yl)-2-formylbenzamide] | 870 nM |
| O=C(O[C@@H]1CN2CCC[C@]2(COc2nc(N3C[C@H]4CC[C@@H](C3)N4)c3cnc(-c4cccc5cccc(Cl)c45)c(F)c3n2)C1)N1CCOCC1 [Example 436, (2S,7aR)-7a-(((4-((1R,5S)-3,8-diazabicyclo[3.2.1]octan-3-yl)-7-(8-chloronaphthalen-1-yl)-8-fluoropyrido[4,3-d]pyrimidin-2-yl)oxy)methyl)hexahydro-1H-pyrrolizin-2-yl morpholine-4-carboxylate] | 48.3 nM |
| Fc1c(-c2ccccc2C(F)F)ncc2c(N3C[C@H]4CC[C@@H](C3)N4)nc(OCC34CCCN3CCC4)nc12 [Example 293, 4-((1R,5S)-3,8-diazabicyclo[3.2.1]octan-3-yl)-7-(2-(difluoromethyl)phenyl)-8-fluoro-2-((hexahydro-1H-pyrrolizin-7a-yl)methoxy)pyrido[4,3-d]pyrimidine] | 692 nM |
| Nc1c(Cl)cc(Cl)c(F)c1-c1ncc2c(N3C[C@H]4CC[C@@H](C3)N4)nc(OCC34CCCN3CCC4)nc2c1F [Example 266, 2-(4-((1R,5S)-3,8-diazabicyclo[3.2.1]octan-3-yl)-8-fluoro-2-((hexahydro-1H-pyrrolizin-7a-yl)methoxy)pyrido[4,3-d]pyrimidin-7-yl)-4,6-dichloro-3-fluoroaniline] | 278 nM |
| Fc1ccc2cccc(-c3ncc4c(N5C[C@H]6CC[C@@H](C5)N6)nc(OCC56CCCN5CCC6)nc4c3F)c2c1 [Example 460, 4-((1R,5S)-3,8-diazabicyclo[3.2.1]octan-3-yl)-8-fluoro-7-(7-fluoronaphthalen-1-yl)-2-((hexahydro-1H-pyrrolizin-7a-yl)methoxy)pyrido[4,3-d]pyrimidine] | 0.027 nM |
| CCc1cccc2cc(O)cc(-c3ncc4c(N5C[C@H]6CC[C@@H](C5)N6)nc(OC[C@@]56CCCN5C[C@H](F)C6)nc4c3F)c12 [Example 259, 4-(4-((1R,5S)-3,8-diazabicyclo[3.2.1]octan-3-yl)-8-fluoro-2-(((2R,7aS)-2-fluorotetrahydro-1H-pyrrolizin-7a(5H)-yl)methoxy)pyrido[4,3-d]pyrimidin-7-yl)-5-ethylnaphthalen-2-ol] | 0.8 nM |
| Fc1c(-c2cccc3cccc(Cl)c23)ncc2c(N3C[C@H]4CC[C@@H](C3)N4)nc(OC[C@H]3CCCO3)nc12 [Example 137, 4-((1R,5S)-3,8-diazabicyclo[3.2.1]octan-3-yl)-7-(8-chloronaphthalen-1-yl)-8-fluoro-2-(((R)-tetrahydrofuran-2-yl)methoxy)pyrido[4,3-d]pyrimidine] | 2630 nM |
| CCCc1ccccc1-c1ncc2c(N3C[C@H]4CC[C@@H](C3)N4)nc(OCC34CCCN3CCC4)nc2c1F [Example 447, 4-((1R,5S)-3,8-diazabicyclo[3.2.1]octan-3-yl)-8-fluoro-7-(2-propylphenyl)-2-((tetrahydro-1H-pyrrolizin-7a-(5H)-yl)methoxy)pyrido[4,3-d]pyrimidine] | 297 nM |
| CN1CC[C@H](COc2nc(N3C[C@H]4CC[C@@H](C3)N4)c3cnc(-c4cccc5cccc(Cl)c45)c(F)c3n2)C1 [Example 357, 4-((1R,5S)-3,8-diazabicyclo[3.2.1]octan-3-yl)-7-(8-chloronaphthalen-1-yl)-8-fluoro-2-(((S)-1-methylpyrrolidin-3-yl)methoxy)pyrido[4,3-d]pyrimidine] | 438 nM |
| Oc1ccccc1-c1ncc2c(N3C[C@H]4CC[C@@H](C3)N4)nc(OCC34CCCN3CCC4)nc2c1F [Example 267, 2-(4-((1R,5S)-3,8-diazabicyclo[3.2.1]octan-3-yl)-8-fluoro-2-((hexahydro-1H-pyrrolizin-7a-yl)methoxy)pyrido[4,3-d]pyrimidin-7-yl)phenol] | 3260 nM |
| C#Cc1c(F)ccc2cccc(-c3ncc4c(N5C[C@H]6CC[C@@H](C5)N6)nc(OC[C@@]56CCCN5C[C@H](F)C6)nc4c3F)c12 [Example 281, 4-((1R,5S)-3,8-diazabicyclo[3.2.1]octan-3-yl)-7-(8-ethynyl-7-fluoronaphthalen-1-yl)-8-fluoro-2-(((2R,7aS)-2-fluorohexahydro-1H-pyrrolizin-7a-yl)methoxy)pyrido[4,3-d]pyrimidine] | 0.9 nM |
| O=C(OC[C@H]1CC[C@@]2(COc3nc(N4CC5CCC(C4)N5)c4cnc(-c5cccc6cccc(Cl)c56)c(F)c4n3)CCCN12)N1CCOCC1 [Example 445, ((3R,7aR)-7a-(((4-(3,8-diazabicyclo[3.2.1]octan-3-yl)-7-(8-chloronaphthalen-1-yl)-8-fluoropyrido[4,3-d]pyrimidin-2-yl)oxy)methyl)hexahydro-1H-pyrrolizin-3-yl)methyl morpholine-4-carboxylate] | 2.7 nM |
| Oc1ccc(OC(F)(F)F)c(-c2ncc3c(N4C[C@H]5CC[C@@H](C4)N5)nc(OCC45CCCN4CCC5)nc3c2F)c1 [Example 341, 3-(4-((1R,5S)-3,8-diazabicyclo[3.2.1]octan-3-yl)-8-fluoro-2-((tetrahydro-1H-pyrrolizin-7a(5H)-yl)methoxy)pyrido[4,3-d]pyrimidin-7-yl)-4-(trifluoromethoxy)phenol] | 0.7 nM |
| N#Cc1ccccc1-c1ncc2c(N3CC4CCC(C3)N4)nc(OC[C@@]34CCCN3C[C@H](F)C4)nc2c1F (stereo in doubt) [Example 409, 2-(4-((1R,5S)-3,8-diazabicyclo[3.2.1]octan-3-yl)-8-fluoro-2-((2-fluorotetrahydro-1H-pyrrolizin-7a(5H)-yl)methoxy)pyrido[4,3-d]pyrimidin-7-yl)benzonitrile] | 2230 nM |
| C#Cc1cccc2cncc(-c3ncc4c(N5C[C@H]6CC[C@@H](C5)N6)nc(OC[C@]56CCCN5C[C@@H](F)C6)nc4c3F)c12 [Example 204, 4-((1R,5S)-3,8-diazabicyclo[3.2.1]octan-3-yl)-7-(5-ethynylisoquinolin-4-yl)-8-fluoro-2-(((2S,7aR)-2-fluorotetrahydro-1H-pyrrolizin-7a(5H)-yl)methoxy)pyrido[4,3-d]pyrimidine] | 4.4 nM |
| Fc1ccccc1-c1ncc2c(N3C[C@H]4CC[C@@H](C3)N4)nc(OCC34CCCN3CCC4)nc2c1F [Example 264, 4-((1R,5S)-3,8-diazabicyclo[3.2.1]octan-3-yl)-8-fluoro-7-(2-fluorophenyl)-2-((hexahydro-1H-pyrrolizin-7a-yl)methoxy)pyrido[4,3-d]pyrimidine] | 4700 nM |
| Cc1ccc2[nH]ncc2c1-c1ncc2c(N3C[C@H]4CC[C@@H](C3)N4)nc(OCC34CCCN3CCC4)nc2c1F [Example 332, 4-((1R,5S)-3,8-diazabicyclo[3.2.1]octan-3-yl)-8-fluoro-7-(5-methyl-1H-indazol-4-yl)-2-((tetrahydro-1H-pyrrolizin-7a(5H)-yl)methoxy)pyrido[4,3-d]pyrimidine] | 164 nM |
| CNC(=O)O[C@@H]1CN2CCC[C@]2(COc2nc(N3C[C@H]4CC[C@@H](C3)N4)c3cnc(-c4cccc5cccc(Cl)c45)c(F)c3n2)C1 [Example 435, (2S,7aR)-7a-(((4-((1R,5S)-3,8-diazabicyclo[3.2.1]octan-3-yl)-7-(8-chloronaphthalen-1-yl)-8-fluoropyrido[4,3-d]pyrimidin-2-yl)oxy)methyl)hexahydro-1H-pyrrolizin-2-yl methylcarbamate] | 28.2 nM |
| Fc1c(-c2cccc3cccc(Cl)c23)ncc2c(N3CC4CCC(C3)N4)nc(OCC34CCCN3C[C@H](F)C4)nc12 (stereo partly drawn) [Example 226, 4-((1R,5S)-3,8-diazabicyclo[3.2.1]octan-3-yl)-7-(8-chloronaphthalen-1-yl)-8-fluoro-2-((2-fluorotetrahydro-1H-pyrrolizin-7a(5H)-yl)methoxy)pyrido[4,3-d]pyrimidine bis-hydrochloride] | 25.9 nM |
